Experimental data taken from PubChem BioAssay AID296 (DTP/NCI, 2004).
Inconclusive results are not listed.

Tested on: MX-1 breast xenograft, nude mice, tumor weight T/C
Assay: NCI In Vivo Anticancer Drug Screen. Data for tumor model Human Mammary Carcinoma MX-1 Xenograft (intrarenal inoculation) in NU/NU Swiss (nude) mice
Conditions: endpoint: mean tumor weight change, higher = larger tumour
How it was run: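 Antitumour effect measured in vivo against vehicle controls, expressed as T/C.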

[1] = dose: 300.0 mg/kg/injection, schedule: Q04DX003 (sc), vehicle: saline with Tween-80
[2] = dose: 600.0 mg/kg/injection, schedule: Q04DX003 (sc), vehicle: saline with Tween-80
[3] = dose: 1200.0 mg/kg/injection, schedule: Q04DX003 (sc), vehicle: saline with Tween-80
[4] = dose: 300.0 mg/kg/injection, schedule: Q04DX003 (sc), vehicle: Klucel (hydroxypropylcellulose) (HPC)
[5] = dose: 600.0 mg/kg/injection, schedule: Q04DX003 (sc), vehicle: Klucel (hydroxypropylcellulose) (HPC)

`Nc1ccc(C(OC(=O)c2cc3ccccc3c(Cc3c(O)c(C(=O)OC(c4ccc(N)cc4)(c4ccc(N)cc4)c4ccc(N)cc4)cc4ccccc34)c2O)(c2ccc(N)cc2)c2ccc(N)cc2)cc1` was tested, and the T/C (dose: 72.0 mg/kg/injection, schedule: Q04DX003 (sc), vehicle: saline with Tween-80) was 97 % of control, the T/C (dose: 144.0 mg/kg/injection, schedule: Q04DX003 (sc), vehicle: saline with Tween-80) was 104 % of control and the T/C (dose: 288.0 mg/kg/injection, schedule: Q04DX003 (sc), vehicle: saline with Tween-80) was 87 % of control.

`C=C1C(=O)OCC2C(C(=O)O)=CC3C(C)C(C)=CC123` (configuration not stated) was tested, and the T/C (dose: 6.25 mg/kg/injection, schedule: Q01DX010 (sc), vehicle: Klucel (hydroxypropylcellulose) (HPC)) was 78 % of control and the T/C (dose: 12.5 mg/kg/injection, schedule: Q01DX010 (sc), vehicle: Klucel (hydroxypropylcellulose) (HPC)) was 113 % of control.

For `CCOC(=O)C(C)(C)Oc1ccc(Cl)cc1`, the T/C [1] was 95 % of control, the T/C [2] was 90 % of control and the T/C [3] was 71 % of control.

`CC(=O)OCC1(C)NC(=O)c2ccccc2O1` (configuration not stated) was tested, and the T/C [1] was 108 % of control, the T/C [2] was 108 % of control and the T/C [3] was 156 % of control. The T/C (dose: 2400.0 mg/kg/injection, schedule: Q04DX003 (sc), vehicle: saline with Tween-80) was 85 % of control.

With `O=C(O)CCCCCCCC(=O)O` the T/C (dose: 300.0 mg/kg/injection, schedule: Q04DX003 (sc), vehicle: distilled water + Tween-80) was 151 % of control, the T/C (dose: 600.0 mg/kg/injection, schedule: Q04DX003 (sc), vehicle: distilled water + Tween-80) was 150 % of control and the T/C (dose: 1200.0 mg/kg/injection, schedule: Q04DX003 (sc), vehicle: distilled water + Tween-80) was 80 % of control.

For `CC12CC(C(=O)O)C3(O)CC(C)(C1)CC(C)(C2)C3` (configuration not stated) (tested in a mixture with another compound), the T/C [4] was 87 % of control, the T/C [5] was 168 % of control and the T/C (dose: 1200.0 mg/kg/injection, schedule: Q04DX003 (sc), vehicle: Klucel (hydroxypropylcellulose) (HPC)) was 102 % of control.

In the case of `CCCN1COC(OCC)C(C)(C)C1` (configuration not stated), the T/C [1] was 98 % of control, the T/C [2] was 94 % of control and the T/C [3] was 73 % of control.

For `CCC/C=C/C=C/C(=O)OC1/C(=C/C(=O)OC)CC2CC(C(C)O)OC(=O)CC(O)CC3CC(OC(C)=O)C(C)(C)C(O)(CC4C/C(=C/C(=O)OC)CC(/C=C/C(C)(C)C1(O)O2)O4)O3` (configuration not stated), the T/C (dose: 0.25 mg/kg/injection, schedule: Q04DX003 (sc), vehicle: saline + alcohol) was 103 % of control, the T/C (dose: 0.5 mg/kg/injection, schedule: Q04DX003 (sc), vehicle: saline + alcohol) was 111 % of control and the T/C (dose: 1.0 mg/kg/injection, schedule: Q04DX003 (sc), vehicle: saline + alcohol) was 70 % of control. For the same compound, the T/C (dose: 2.0 mg/kg/injection, schedule: Q04DX003 (sc), vehicle: saline + alcohol) was 60 % of control.

For `COC1=CC(=O)N(C(=O)C2CSC(C(CO)NC(=O)c3csc(/C=N/O)n3)=N2)C1` (configuration not stated), the T/C (dose: 150.0 mg/kg/injection, schedule: Q04DX003 (sc), vehicle: Klucel (hydroxypropylcellulose) (HPC)) was 79 % of control, the T/C [4] was 81 % of control and the T/C [5] was 95 % of control.

In the case of `CCOC(C)C(/C=N/NC(N)=S)=NNC(N)=S` (configuration not stated), the T/C (dose: 100.0 mg/kg/injection, schedule: Q01DX010 (sc), vehicle: saline with Tween-80) was 167 % of control, the T/C (dose: 200.0 mg/kg/injection, schedule: Q01DX010 (sc), vehicle: saline with Tween-80) was 123 % of control and the T/C (dose: 800.0 mg/kg/injection, schedule: Q01DX010 (sc), vehicle: saline with Tween-80) was 96 % of control.

`NC(CCC(=O)NC(CS)C(=O)NCC(=O)O)C(=O)O` (configuration not stated) was tested, and the T/C (dose: 300.0 mg/kg/injection, schedule: Q04DX003 (sc), vehicle: saline) was 87 % of control, the T/C (dose: 600.0 mg/kg/injection, schedule: Q04DX003 (sc), vehicle: saline) was 93 % of control and the T/C (dose: 1200.0 mg/kg/injection, schedule: Q04DX003 (sc), vehicle: saline) was 104 % of control. The T/C (dose: 2400.0 mg/kg/injection, schedule: Q04DX003 (sc), vehicle: saline) was 89 % of control.

With `O=c1n(CC2CO2)c(=O)n(CC2CO2)c(=O)n1CC1CO1` (configuration not stated) the T/C (dose: 25.0 mg/kg/injection, schedule: Q04DX003 (sc), vehicle: saline) was 26 % of control and the T/C (dose: 50.0 mg/kg/injection, schedule: Q04DX003 (sc), vehicle: saline) was 4 % of control.
